ChEMBL document CHEMBL4334464, “From Phenylthiazoles to Phenylpyrazoles: Broadening the Antibacterial Spectrum toward Carbapenem-Resistant Bacteria” (J Med Chem, 2019)
Active and inactive are the calls of the source.

What was measured:
[1] = tested on: Klebsiella pneumoniae; experiment: Ratio of MBC to MIC for Klebsiella pneumoniae BAA-1706 after 18 to 20 hrs in aerobic condition by CLSI-based broth microdilution assay; assay type: functional
[2] = tested on: Acinetobacter baumannii; experiment: microbe, parasite or virus in culture; details: ATCC BAA 1747
Description: Antibacterial activity against Acinetobacter baumannii ATCC BAA 1747 after 18 to 20 hrs in aerobic condition by CLSI-based broth microdilution assay

[3] = tested on: Escherichia coli; experiment: Ratio of MBC to MIC for Escherichia coli ATCC 25922 clinical isolates; assay type: functional
[4] = tested on: Staphylococcus aureus; experiment: Antibacterial activity against Methicillin-resistant Staphylococcus aureus USA700-NRS386 clinical isolates after 18 to 20 hrs in aerobic condition by CLSI protocol based broth microdilution assay; assay type: functional
[5] = tested on: Staphylococcus aureus; experiment: Antibacterial activity against linezolid-resistant/Methicillin-resistant Staphylococcus aureus NRS119 clinical isolates after 18 to 20 hrs in aerobic condition by CLSI protocol based broth microdilution assay; assay type: functional
[6] = tested on: Staphylococcus epidermidis; experiment: Ratio of MBC to MIC for Staphylococcus epidermidis NRS101 clinical isolates; assay type: functional
[7] = tested on: Staphylococcus aureus; experiment: Bactericidal activity against methicillin-resistant Staphylococcus aureus NRS123-USA400 clinical isolates at 5 times MIC incubated over 24 hrs followed by replating on tryptic soy agar plate and further incubated for 18 to 20 hrs by time kill assay; assay type: functional, organism-based
[8] = tested on: Acinetobacter baumannii; experiment: Ratio of MBC to MIC for Acinetobacter baumannii NR 17786 clinical isolates; assay type: functional
[9] = tested on: Acinetobacter baumannii; experiment: Antibacterial activity against Acinetobacter baumannii ATCC BAA 1141 clinical isolates after 18 to 20 hrs in aerobic condition by CLSI-based broth microdilution assay; assay type: functional
[10] = tested on: Enterobacter cloacae subsp. cloacae; experiment: Ratio of MBC to MIC for Enterobacter cloacae subsp. cloacae ATCC BAA-1143 clinical isolates; assay type: functional
[11] = tested on: Streptococcus pneumoniae; experiment: Ratio of MBC to MIC for cephalosporin-resistant Streptococcus pneumoniae ATCC 51916 clinical isolates; assay type: functional
[12] = tested on: Escherichia coli; experiment: Antibacterial activity against carbapenem-resistant Escherichia coli BAA-2469 clinical isolates after 18 to 20 hrs in aerobic condition by CLSI-based broth microdilution assay; assay type: functional
[13] = tested on: Listeria monocytogenes; experiment: Ratio of MBC to MIC for Listeria monocytogenes ATCC 19111 clinical isolates; assay type: functional
[14] = tested on: Escherichia coli; experiment: Antibacterial activity against Escherichia coli ATCC 25922 clinical isolates after 18 to 20 hrs in aerobic condition by CLSI-based broth microdilution assay; assay type: functional
[15] = tested on: Staphylococcus aureus; experiment: Antibacterial activity against methicillin-resistant Staphylococcus aureus NRS384-USA300 clinical isolates after 18 to 20 hrs in aerobic condition by CLSI protocol based broth microdilution assay; assay type: functional
[16] = tested on: Clostridioides difficile; experiment: Ratio of MBC to MIC for Clostridium difficile ATCC BAA 1870; assay type: functional
[17] = tested on: Listeria monocytogenes; experiment: Antibacterial activity against Listeria monocytogenes ATCC 19111 after 18 to 20 hrs in aerobic condition by CLSI-based broth microdilution assay; assay type: functional
[18] = tested on: Salmonella enterica; experiment: Antibacterial activity against Salmonella enterica NR-170 clinical isolates after 18 to 20 hrs in aerobic condition by CLSI-based broth microdilution assay; assay type: functional
[19] = tested on: Pseudomonas aeruginosa; experiment: Antibacterial activity against Pseudomonas aeruginosa ATCC 15442 clinical isolates after 18 to 20 hrs in aerobic condition by CLSI-based broth microdilution assay; assay type: functional
[20] = tested on: Acinetobacter baumannii; experiment: Ratio of MBC to MIC for Acinetobacter baumannii NR 17785 clinical isolates; assay type: functional
[21] = tested on: Salmonella typhimurium; experiment: Ratio of MBC to MIC for Salmonella typhimurium ATCC 700720 clinical isolates; assay type: functional, Salmonella enterica subsp. enterica serovar Typhimurium
[22] = tested on: Enterococcus faecalis; experiment: Ratio of MBC to MIC for vancomycin-resistant Enterococcus faecalis ATCC 51299 clinical isolates; assay type: functional
[23] = tested on: Shigella flexneri; experiment: Ratio of MBC to MIC for Shigella flexneri ATCC 9199 clinical isolates; assay type: functional
[24] = tested on: Shigella flexneri; experiment: Antibacterial activity against Shigella flexneri ATCC 9199 clinical isolates after 18 to 20 hrs in aerobic condition by CLSI-based broth microdilution assay; assay type: functional
[25] = tested on: Pseudomonas aeruginosa; experiment: microbe, parasite or virus in culture; details: ATCC 9027
Description: Antibacterial activity against Pseudomonas aeruginosa ATCC 9027 clinical isolates after 18 to 20 hrs in aerobic condition by CLSI-based broth microdilution assay

[26] = tested on: Pseudomonas aeruginosa; experiment: Ratio of MBC to MIC for Pseudomonas aeruginosa ATCC 15442 clinical isolates; assay type: functional
[27] = tested on: Escherichia coli; experiment: Inhibition of 6His tagged Escherichia coli UPPP expressed in Escherichia coli C41(DE3) cells preincubated for 15 mins followed by FPP substrate addition and measured after 20 mins by malachite green reagent based assay
[28] = tested on: Enterococcus faecium; experiment: Ratio of MBC to MIC for vancomycin-resistant Enterococcus faecium ATCC 700221 clinical isolates; assay type: functional
[29] = tested on: Klebsiella pneumoniae; experiment: Ratio of MBC to MIC for Klebsiella pneumoniae BAA-1144 clinical isolates; assay type: functional
[30] = tested on: Streptococcus pneumoniae; experiment: Antibacterial activity against methicillin-resistant Streptococcus pneumoniae ATCC 700677 clinical isolates after 18 to 20 hrs by CLSI-based broth microdilution assay; assay type: functional
[31] = tested on: Escherichia coli; experiment: Antibacterial activity against carbapenem-resistant Escherichia coli BAA-2452 clinical isolates after 18 to 20 hrs in aerobic condition by CLSI-based broth microdilution assay; assay type: functional
[32] = tested on: Salmonella enteritidis; experiment: Antibacterial activity against Salmonella enteritidis ATCC 14028 clinical isolates after 18 to 20 hrs in aerobic condition by CLSI-based broth microdilution assay; assay type: functional, Salmonella enterica subsp. enterica serovar Enteritidis; details: Salmonella enterica
[33] = tested on: Escherichia coli; experiment: Antibacterial activity against Escherichia coli BW25113 clinical isolates after 18 to 20 hrs in aerobic condition by CLSI-based broth microdilution assay; assay type: functional
[34] = tested on: Escherichia coli; experiment: microbe, parasite or virus in culture; details: ATCC 1411
Description: Antibacterial activity against Escherichia coli ATCC 1411 clinical isolates after 18 to 20 hrs in aerobic condition by CLSI-based broth microdilution assay

[35] = tested on: Klebsiella pneumoniae; experiment: Antibacterial activity against carbapenem-resistant Klebsiella pneumoniae ATCC BAA-1705 clinical isolates after 18 to 20 hrs in aerobic condition by CLSI-based broth microdilution assay; assay type: functional
[36] = tested on: Escherichia coli; experiment: Antimicrobial activity against Escherichia coli JW55031 harboring deltatolC mutant after 18 to 20 hrs in aerobic condition by CLSI protocol based broth microdilution assay; assay type: functional
[37] = tested on: Enterococcus faecium; experiment: Antibacterial activity against vancomycin-resistant Enterococcus faecium ATCC 700221 clinical isolates after 18 to 20 hrs in aerobic condition by CLSI-based broth microdilution assay; assay type: functional
[38] = tested on: Enterococcus faecalis; experiment: Antibacterial activity against vancomycin-resistant Enterococcus faecalis ATCC 51299 clinical isolates after 18 to 20 hrs in aerobic condition by CLSI-based broth microdilution assay; assay type: functional
[39] = tested on: Salmonella enteritidis; experiment: Antibacterial activity against Salmonella enteritidis ATCC 13076 clinical isolates after 18 to 20 hrs in aerobic condition by CLSI-based broth microdilution assay; assay type: functional, Salmonella enterica subsp. enterica serovar Enteritidis; details: Salmonella enterica
[40] = tested on: Staphylococcus epidermidis; experiment: Antibacterial activity against Staphylococcus epidermidis NRS101 after 18 to 20 hrs in aerobic condition by CLSI-based broth microdilution assay; assay type: functional
[41] = tested on: Escherichia coli; experiment: Antibacterial activity against Escherichia coli ATCC 35150 clinical isolates after 18 to 20 hrs in aerobic condition by CLSI-based broth microdilution assay; assay type: functional
[42] = tested on: Staphylococcus aureus; experiment: Antibacterial activity against Methicillin-sensitive Staphylococcus aureus NRS107 clinical isolates after 18 to 20 hrs in aerobic condition by CLSI protocol based broth microdilution assay; assay type: functional
[43] = tested on: Streptococcus pneumoniae; experiment: Antibacterial activity against cephalosporin-resistant Streptococcus pneumoniae ATCC 51916 clinical isolates after 18 to 20 hrs by CLSI-based broth microdilution assay; assay type: functional

CCCC#Cc1ccc(-n2ncc(/C(C)=N/NC(=N)N)c2C)cc1
8 µg/mL: MIC [2] | MIC [9] | MIC [14] | MIC [33] | MIC [41]
<3: Ratio [6] | Ratio [11] | Ratio [13] | Ratio [16] | Ratio [22] | Ratio [28]
32 µg/mL: MIC [12] | MIC [25] | MIC [31]
>=1: Ratio [1] | Ratio [3] | Ratio [8] | Ratio [20] | Ratio [21] | Ratio [23] | Ratio [26] | Ratio [29]
inactive: inhibition [27]
> 1: Ratio [10]
4 µg/mL: MIC [4] | MIC [15] | MIC [17] | MIC [30] | MIC [36] | MIC [37] | MIC [38] | MIC [40] | MIC [42] | MIC [43]
16 µg/mL: MIC [18] | MIC [19] | MIC [24] | MIC [32] | MIC [34] | MIC [35] | MIC [39]
active: Activity [7]
2 µg/mL: MIC [5]
